Data published in ChEMBL document CHEMBL1201862, “PubChem BioAssay data set” (2004).
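Where inhibition never reached the appropriate level, the endpoint shown equals the highest concentration tested. Otherwise, values were interpolated linearly from a five-concentration, 48-hour dose response in 96-well plates. GI50 marks 50% less growth.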 Calls of active or inactive are those of the source. No stated cut-off is given here; in the data, active = GI50 up to about 1.1 µM and inactive = higher.

Tests used:
Assay in all cases: NCI-60 cell line screen, 48 h
M14 = test system: M14
HOP-62 = test system: HOP-62
U-251 = test system: U-251
CCRF-CEM = test system: CCRF-CEM
SF-539 = test system: SF-539
NCI-H226 = test system: NCI-H226
RPMI-8226 = test system: RPMI-8226
SR = test system: SR
OVCAR-5 = test system: OVCAR-5
IGROV-1 = test system: IGROV-1
SN12C = test system: SN12C
SK-MEL-2 = test system: SK-MEL-2
OVCAR-4 = test system: OVCAR-4
K562 = test system: K562
HCC 2998 = test system: HCC 2998
COLO 205 = test system: COLO 205
OVCAR-3 = test system: OVCAR-3
DU-145 = test system: DU-145
NCI/ADR-RES = test system: NCI/ADR-RES
MDA-N = test system: MDA-N

Measured: GI50

O=[N+]([O-])c1cccnc1S(=O)(=O)c1ccccc1
inactive: M14 9.4 µM | HOP-62 17.3 µM | U-251 8.95 µM | CCRF-CEM 4.21 µM | SF-539 11.3 µM | NCI-H226 15.8 µM | RPMI-8226 8.71 µM | SR 3.99 µM | OVCAR-5 15.8 µM | IGROV-1 8.13 µM | SN12C 9.2 µM | SK-MEL-2 16.2 µM | OVCAR-4 6.47 µM | K562 3.45 µM | HCC 2998 13.6 µM | COLO 205 5.97 µM | OVCAR-3 2.01 µM

O=C(O)c1oc2cccc3c2c1CCC3
inactive: M14 > 100 µM | HOP-62 > 100 µM | U-251 > 100 µM | CCRF-CEM > 100 µM | SF-539 > 100 µM | RPMI-8226 > 100 µM | SR > 100 µM | OVCAR-5 > 100 µM | IGROV-1 > 100 µM | SN12C > 100 µM | SK-MEL-2 > 100 µM | OVCAR-4 > 100 µM | K562 > 100 µM | HCC 2998 > 100 µM | COLO 205 > 100 µM | OVCAR-3 > 100 µM

COc1cc(O)cc(O)c1C(=O)CC(Cl)(Cl)Cl
inactive: M14 > 100 µM | HOP-62 > 100 µM | U-251 > 100 µM | CCRF-CEM > 100 µM | SF-539 > 100 µM | NCI-H226 > 100 µM | DU-145 > 100 µM | RPMI-8226 40.1 µM | SR > 100 µM | OVCAR-5 > 100 µM | IGROV-1 > 100 µM | SN12C > 100 µM | OVCAR-4 > 100 µM | K562 > 100 µM | HCC 2998 > 100 µM | COLO 205 > 100 µM | NCI/ADR-RES > 100 µM | OVCAR-3 > 100 µM

COc1ccccc1Nc1nc2c([nH]1)c(=O)n(C)c(=O)n2C
inactive: M14 > 10 µM | HOP-62 > 10 µM | CCRF-CEM > 10 µM | DU-145 > 10 µM | RPMI-8226 > 10 µM | SR > 10 µM | IGROV-1 > 10 µM | SN12C > 10 µM | MDA-N > 10 µM | OVCAR-4 > 10 µM | K562 > 10 µM | HCC 2998 > 10 µM | COLO 205 > 10 µM

COCCn1cnc2c(Cl)nc(Nc3ccccc3)nc21
inactive: M14 26.3 µM | HOP-62 59.7 µM | U-251 32.7 µM | CCRF-CEM 19.3 µM | SF-539 > 100 µM | NCI-H226 > 100 µM | DU-145 > 100 µM | RPMI-8226 86.9 µM | SR 26.2 µM | OVCAR-5 > 100 µM | IGROV-1 21.2 µM | SN12C 26.4 µM | SK-MEL-2 17.7 µM | OVCAR-4 22 µM | K562 25.9 µM | HCC 2998 17.3 µM | COLO 205 76.2 µM | NCI/ADR-RES 39.2 µM | OVCAR-3 16.5 µM

O=[N+]([O-])C=C(c1ccc(Cl)cc1)c1ccc(Cl)cc1
inactive: M14 14.8 µM | HOP-62 18.6 µM | U-251 16.1 µM | CCRF-CEM 22 µM | SF-539 17 µM | NCI-H226 16.7 µM | RPMI-8226 11.2 µM | SR 19.5 µM | OVCAR-5 14.5 µM | IGROV-1 28.1 µM | SN12C 19.5 µM | SK-MEL-2 29.2 µM | OVCAR-4 13.5 µM | K562 21.3 µM | HCC 2998 19 µM | COLO 205 3.85 µM | OVCAR-3 > 10 µM

O=c1[nH]c(=O)n(C2CC(O)C(CO)O2)cc1C#Cc1ccc(F)cc1 (stereo not given)
inactive: M14 > 100 µM | HOP-62 > 100 µM | U-251 > 100 µM | CCRF-CEM > 100 µM | SF-539 > 100 µM | NCI-H226 > 100 µM | RPMI-8226 > 100 µM | SR > 100 µM | OVCAR-5 > 100 µM | IGROV-1 > 100 µM | SN12C > 100 µM | SK-MEL-2 > 100 µM | OVCAR-4 25.8 µM | K562 > 100 µM | HCC 2998 > 100 µM | COLO 205 > 100 µM | OVCAR-3 > 100 µM

CN(/N=C/c1ccccn1)C1=NCCN1
inactive: M14 > 100 µM | HOP-62 > 100 µM | U-251 > 100 µM | CCRF-CEM > 100 µM | SF-539 > 100 µM | NCI-H226 > 100 µM | RPMI-8226 > 100 µM | SR > 100 µM | OVCAR-5 > 100 µM | IGROV-1 > 100 µM | SK-MEL-2 > 100 µM | MDA-N > 100 µM | OVCAR-4 > 100 µM | K562 > 100 µM | HCC 2998 > 100 µM | COLO 205 > 100 µM | NCI/ADR-RES > 100 µM | OVCAR-3 > 100 µM
